Results: BindingDB's records for doi:10.1016/s0968-0896(99)00215-1 (Parke-Davis Pharmaceutical Research, 1999)

Target: T1, Dimer of Gag-Pol polyprotein [489-587] (Human immunodeficiency virus 1, UniProt P12497)
T1 construct: 489-587
Experiment: Protease Inhibition Assay
Method: For determination of IC50 values, HIV-1 protease was added to assay buffer containing inhibitor and the substrate (H-His-Lys-Ala-Arg-Val-Leu- (p-NO2) Phe-Glu-Ala-norleucine-Ser-NH2). The Leu- (p-NO2) Phe bond of the substrate was cleaved by the enzyme, and the substrate and products were separated by reversed-phase HPLC. Absorbance was measured at 220 nm, peak areas were determined, and percentage conversion to product was calculated.

SMILES: Cc1cc(SC2C(=O)C[C@](CCc3ccccc3)(C(C)C)OC2=O)c(C(C)(C)C)cc1CO (stereo partly drawn) [(6R)-3-{[2-tert-butyl-4-(hydroxymethyl)-5-methylphenyl]sulfanyl}-4-hydroxy-6-(2-phenylethyl)-6-(propan-2-yl)-5,6-dihydro-2H-pyran-2-one]
- Ki: 160 nM

SMILES: Cc1cc(SC2C(=O)CC(CCc3ccc(O)cc3)(C3CCCC3)OC2=O)c(C(C)(C)C)cc1CO (stereo not drawn) [3-{[2-tert-butyl-4-(hydroxymethyl)-5-methylphenyl]sulfanyl}-6-cyclopentyl-4-hydroxy-6-[2-(4-hydroxyphenyl)ethyl]-5,6-dihydro-2H-pyran-2-one]
- IC50 (pH 6.2, 37 °C): 3.1 nM

SMILES: Cc1ccc(C(C)(C)C)c(SC2C(=O)CC(CCc3ccc(O)cc3)(C(C)C)OC2=O)c1 (stereo not drawn) [(3-(2-tert-Butyl-5-methyl-phenylsulfanyl)-4-hydroxy-6-[2-(4-hydroxy-phenyl)-ethyl]-6-isopropyl-5,6-dihydro-pyran-2-one]
- IC50 (pH 6.2, 37 °C): 4.6 nM

SMILES: Cc1cc(SC2C(=O)CC(CCc3ccc(O)cc3)(C3CCC3)OC2=O)c(C(C)(C)C)cc1CO (stereo not drawn) [3-{[2-tert-butyl-4-(hydroxymethyl)-5-methylphenyl]sulfanyl}-6-cyclobutyl-4-hydroxy-6-[2-(4-hydroxyphenyl)ethyl]-5,6-dihydro-2H-pyran-2-one]
- IC50 (pH 6.2, 37 °C): 2.2 nM

SMILES: Cc1cc(SC2C(=O)C[C@@](CCc3ccc(O)cc3)(C(C)C)OC2=O)c(C(C)(C)C)cc1CO (stereo partly drawn) [(6S)-3-{[2-tert-butyl-4-(hydroxymethyl)-5-methylphenyl]sulfanyl}-4-hydroxy-6-[2-(4-hydroxyphenyl)ethyl]-6-(propan-2-yl)-5,6-dihydro-2H-pyran-2-one]
- Ki: 0.09 nM

SMILES: CCCC1(CCc2ccc(O)cc2)CC(=O)C(Sc2cc(C)ccc2C(C)(C)C)C(=O)O1 (stereo not drawn) [3-[(2-tert-butyl-5-methylphenyl)sulfanyl]-4-hydroxy-6-[2-(4-hydroxyphenyl)ethyl]-6-propyl-5,6-dihydro-2H-pyran-2-one]
- IC50 (pH 6.2, 37 °C): 19 nM

SMILES: Cc1cc(SC2C(=O)CC(CCc3ccc(O)cc3)(C(C)C)OC2=O)c(C(C)(C)C)cc1OCCO (stereo not drawn) [(3-(2-tert-Butyl-4-(2-hydroxy-ethoxy)-5-methyl-phenylsulfanyl)-4-hydroxy-6-[2-(4-hydroxy-phenyl)-ethyl]-6-isopropyl-5,6-dihydro-pyran-2-one]
- IC50: 2.8 nM

SMILES: Cc1cc(SC2C(=O)CC(CCc3ccccc3)(c3ccccc3)OC2=O)c(C(C)(C)C)cc1CO (stereo not drawn) [PD 178390 Analog 38]
- IC50: 6.5 nM

SMILES: Cc1ccc(C(C)(C)C)c(SC2C(=O)CC(C)(CCc3ccc(O)cc3)OC2=O)c1 (stereo not drawn) [(3-(2-tert-Butyl-5-methyl-phenylsulfanyl)-4-hydroxy-6-[2-(4-hydroxy-phenyl)-ethyl]-6-methyl-5,6-dihydro-pyran-2-one]
- IC50 (pH 6.2, 37 °C): 9.5 nM

SMILES: Cc1cc(SC2C(=O)CC(CCc3ccc(O)cc3)(CC(C)C)OC2=O)c(C(C)(C)C)cc1CO (stereo not drawn) [3-{[2-tert-butyl-4-(hydroxymethyl)-5-methylphenyl]sulfanyl}-4-hydroxy-6-[2-(4-hydroxyphenyl)ethyl]-6-(2-methylpropyl)-5,6-dihydro-2H-pyran-2-one]
- IC50 (pH 6.2, 37 °C): 3.3 nM

SMILES: Cc1cc(SC2C(=O)CC(CCc3ccc(N)cc3)(CC(C)C)OC2=O)c(C(C)(C)C)cc1CO (stereo not drawn) [6-[2-(4-aminophenyl)ethyl]-3-{[2-tert-butyl-4-(hydroxymethyl)-5-methylphenyl]sulfanyl}-4-hydroxy-6-(2-methylpropyl)-5,6-dihydro-2H-pyran-2-one]
- IC50: 2.9 nM

SMILES: Cc1cc(SC2C(=O)CC(CCc3ccc(O)cc3)(C(C)C)OC2=O)c(C(C)(C)C)cc1CO (stereo not drawn) [3-{[2-tert-butyl-4-(hydroxymethyl)-5-methylphenyl]sulfanyl}-4-hydroxy-6-[2-(4-hydroxyphenyl)ethyl]-6-(propan-2-yl)-5,6-dihydro-2H-pyran-2-one]
- Ki (pH 6.2, 37 °C): 0.17 nM

SMILES: Cc1cc(SC2C(=O)CC(CCc3ccc(N)cc3)(C(C)C)OC2=O)c(C(C)(C)C)cc1CO (stereo not drawn) [6-[2-(4-aminophenyl)ethyl]-3-{[2-tert-butyl-4-(hydroxymethyl)-5-methylphenyl]sulfanyl}-4-hydroxy-6-(propan-2-yl)-5,6-dihydro-2H-pyran-2-one]
- Ki: 0.43 nM

SMILES: Cc1cc(SC2C(=O)CC(CCc3ccc(O)cc3)(C3CC3)OC2=O)c(C(C)(C)C)cc1CO (stereo not drawn) [(3-(2-tert-Butyl-4-hydroxymethyl-5-methyl-phenylsulfanyl)-6-cyclopropyl-4-hydroxy-6-[2-(4-hydroxy-phenyl)-ethyl]-5,6-dihydro-pyran-2-one]
- IC50 (pH 6.2, 37 °C): 1 nM

SMILES: CCCCCC1(CCc2ccc(O)cc2)CC(=O)C(Sc2cc(C)c(CO)cc2C(C)(C)C)C(=O)O1 (stereo not drawn) [3-{[2-tert-butyl-4-(hydroxymethyl)-5-methylphenyl]sulfanyl}-4-hydroxy-6-[2-(4-hydroxyphenyl)ethyl]-6-pentyl-5,6-dihydro-2H-pyran-2-one]
- IC50 (pH 6.2, 37 °C): 5.9 nM

SMILES: CCCC1(CCc2ccc(O)cc2)CC(=O)C(Sc2cc(C)c(CO)cc2C(C)(C)C)C(=O)O1 (stereo not drawn) [3-{[2-tert-butyl-4-(hydroxymethyl)-5-methylphenyl]sulfanyl}-4-hydroxy-6-[2-(4-hydroxyphenyl)ethyl]-6-propyl-5,6-dihydro-2H-pyran-2-one]
- IC50 (pH 6.2, 37 °C): 2.6 nM

SMILES: CCCC1(CCc2ccc(O)cc2)CC(=O)C(Sc2cc(C)c(OCCO)cc2C(C)(C)C)C(=O)O1 (stereo not drawn) [3-{[2-tert-butyl-4-(2-hydroxyethoxy)-5-methylphenyl]sulfanyl}-4-hydroxy-6-[2-(4-hydroxyphenyl)ethyl]-6-propyl-5,6-dihydro-2H-pyran-2-one]
- IC50: 6 nM

SMILES: Cc1cc(SC2C(=O)CC(CCc3ccc(O)cc3)(C3CCCC3)OC2=O)c(C(C)(C)C)cc1OCCO (stereo not drawn) [3-{[2-tert-butyl-4-(2-hydroxyethoxy)-5-methylphenyl]sulfanyl}-6-cyclopentyl-4-hydroxy-6-[2-(4-hydroxyphenyl)ethyl]-5,6-dihydro-2H-pyran-2-one]
- IC50: 2.8 nM

SMILES: Cc1cc(SC2C(=O)C[C@@](CCc3ccccc3)(C(C)C)OC2=O)c(C(C)(C)C)cc1CO (stereo partly drawn) [(6S)-3-{[2-tert-butyl-4-(hydroxymethyl)-5-methylphenyl]sulfanyl}-4-hydroxy-6-(2-phenylethyl)-6-(propan-2-yl)-5,6-dihydro-2H-pyran-2-one]
- Ki: 0.09 nM

SMILES: Cc1cc(SC2C(=O)C[C@](CCc3ccc(O)cc3)(C(C)C)OC2=O)c(C(C)(C)C)cc1CO (stereo partly drawn) [(3-(2-tert-Butyl-4-hydroxymethyl-5-methyl-phenylsulfanyl)-4-hydroxy-6-[2-(4-hydroxypheny)-ethyl]-6-isopropyl-5,6-dihydro-pyran-2-one]
- Ki: 31 nM

SMILES: CCCCC1(CCc2ccc(O)cc2)CC(=O)C(Sc2cc(C)c(OCCO)cc2C(C)(C)C)C(=O)O1 (stereo not drawn) [6-butyl-3-{[2-tert-butyl-4-(2-hydroxyethoxy)-5-methylphenyl]sulfanyl}-4-hydroxy-6-[2-(4-hydroxyphenyl)ethyl]-5,6-dihydro-2H-pyran-2-one]
- IC50: 6.4 nM

SMILES: Cc1cc(SC2C(=O)CC(CCc3ccccc3)(C(C)C)OC2=O)c(C(C)(C)C)cc1O (stereo not drawn)
- Ki: 1.1 nM

SMILES: Cc1cc(SC2C(=O)C[C@](CCc3ccc(N)cc3)(C(C)C)OC2=O)c(C(C)(C)C)cc1CO (stereo partly drawn) [(6R)-6-[2-(4-aminophenyl)ethyl]-3-{[2-tert-butyl-4-(hydroxymethyl)-5-methylphenyl]sulfanyl}-4-hydroxy-6-(propan-2-yl)-5,6-dihydro-2H-pyran-2-one]
- Ki: 25 nM

SMILES: Cc1cc(SC2C(=O)C[C@@](CCc3ccc(N)cc3)(C(C)C)OC2=O)c(C(C)(C)C)cc1CO (stereo partly drawn) [(6S)-6-[2-(4-aminophenyl)ethyl]-3-{[2-tert-butyl-4-(hydroxymethyl)-5-methylphenyl]sulfanyl}-4-hydroxy-6-(propan-2-yl)-5,6-dihydro-2H-pyran-2-one]
- Ki: 0.11 nM

SMILES: Cc1ccc(C(C)(C)C)c(SC2C(=O)CC(CCc3ccc(O)cc3)(C3CCCCC3)OC2=O)c1 (stereo not drawn) [3-[(2-tert-butyl-5-methylphenyl)sulfanyl]-6-cyclohexyl-4-hydroxy-6-[2-(4-hydroxyphenyl)ethyl]-5,6-dihydro-2H-pyran-2-one]
- IC50 (pH 6.2, 37 °C): 33 nM

SMILES: Cc1cc(SC2C(=O)CC(CCc3ccccc3)(C(C)C)OC2=O)c(C(C)(C)C)cc1OCCO (stereo not drawn) [3-{[2-tert-butyl-4-(2-hydroxyethoxy)-5-methylphenyl]sulfanyl}-4-hydroxy-6-(2-phenylethyl)-6-(propan-2-yl)-5,6-dihydro-2H-pyran-2-one]
- IC50: 2.6 nM

SMILES: CCCCC1(CCc2ccc(O)cc2)CC(=O)C(Sc2cc(C)c(CO)cc2C(C)(C)C)C(=O)O1 (stereo not drawn) [6-butyl-3-{[2-tert-butyl-4-(hydroxymethyl)-5-methylphenyl]sulfanyl}-4-hydroxy-6-[2-(4-hydroxyphenyl)ethyl]-5,6-dihydro-2H-pyran-2-one]
- IC50 (pH 6.2, 37 °C): 4.1 nM

SMILES: Cc1cc(SC2C(=O)CC(CCc3ccc(O)cc3)(C3CCCCC3)OC2=O)c(C(C)(C)C)cc1O (stereo not drawn) [3-(2-tert-Butyl-4-hydroxy-5-methyl-phenylsulfanyl)-6-cyclohexyl-4-hydroxy-6-[2-(4-hydroxy-phenyl)-ethyl]-5,6-dihydro-pyran-2-one]
- IC50 (pH 6.2, 37 °C): 2.9 nM

SMILES: Cc1cc(SC2C(=O)CC(CCc3ccc(O)cc3)(C(C)C)OC2=O)c(C(C)(C)C)cc1O (stereo not drawn) [PD 178390 Analog 23]
- Ki (pH 6.2, 37 °C): 0.03 nM

SMILES: Cc1cc(SC2C(=O)CC(CCc3ccc(O)cc3)(C3CCCCC3)OC2=O)c(C(C)(C)C)cc1CO (stereo not drawn) [PD 178390 Analog 21]
- IC50 (pH 6.2, 37 °C): 2.5 nM

SMILES: Cc1cc(SC2C(=O)CC(CCc3ccc(O)cc3)(C3CC3)OC2=O)c(C(C)(C)C)cc1OCCO (stereo not drawn) [(3-(2-tert-Butyl-4-(2-hydroxy-ethoxy)-5-methyl-phenylsulfanyl)-6-cyclopropyl-4-hydroxy-6-[2-(4-hydroxy-phenyl)-ethyl]-5,6-dihydro-pyran-2-one]
- IC50: 3.8 nM

SMILES: Cc1ccc(C(C)(C)C)c(SC2C(=O)CC(CCc3ccccc3)(C(C)C)OC2=O)c1 (stereo not drawn) [3-[(2-tert-butyl-5-methylphenyl)sulfanyl]-4-hydroxy-6-(2-phenylethyl)-6-(propan-2-yl)-5,6-dihydro-2H-pyran-2-one]
- IC50: 1.1 nM

SMILES: Cc1ccc(C(C)(C)C)c(SC2C(=O)CC(CCc3ccc(O)cc3)(C3CC3)OC2=O)c1 (stereo not drawn) [(3-(2-tert-Butyl-5-methyl-phenylsulfanyl)-6-cyclopropyl-4-hydroxy-6-[2-(4-hydroxy-phenyl)-ethyl]-5,6-dihydro-pyran-2-one]
- IC50 (pH 6.2, 37 °C): 8 nM
